Measurements as given in the RepoRT retention time repository.

Test: HILIC, Waters ACQUITY UPLC BEH Amide, 100 × 2.1 mm, 1.7 µm; A: water + 0.125% formic acid + 10 mM ammonium formate; B: 5% water + 95% acetonitrile + 0.125% formic acid + 10 mM ammonium formate; gradient (min/%B) 0/100 2/100 7.7/70 9.5/40 10.25/30 12.75/100 17/100
Conditions: stereoisomer not certain

Row | Compound | LC retention time
1 | Cn1c(=N)ccn(C2OC(CO)C(O)C2O)c1=O (configuration not stated) [3-Methylcytidine] | 6.99 min
2 | CC(=O)OCC(CCn1cnc2cnc(N)nc21)COC(C)=O [Famciclovir] | 1.38 min
3 | CC(=O)OC1(C(C)=O)CCC2C3C=C(C)C4=CC(=O)CCC4(C)C3CCC21C (configuration not stated) [Megestrol Acetate] | 0.96 min
4 | C=CC1=C(C(=O)O)N2C(=O)C(NC(=O)C(=NOCC(=O)O)c3csc(N)n3)C2SC1 (configuration not stated) [Cefixime] | 7.79 min
5 | COc1cc(/C=C/C(=O)O)ccc1O [Ferulic acid] | 1.36 min
6 | O=Cc1c[nH]c2ccccc12 [Indole-3-carboxaldehyde] | 1.16 min
7 | CCCCCCCCCCCCCCCC(=O)OC(CO)CO [2-Palmitoylglycerol] | 0.99 min
8 | CC12CCC3C(CCC4=CC(=O)CCC43C)C1CCC2=O (configuration not stated) [Androstenedione] | 1.09 min
9 | C=C(C)CN1CCC23c4c5ccc(O)c4OC2c2[nH]c4ccccc4c2CC3(O)C1C5 (configuration not stated) | 2.93 min
10 | CC1CNC(=O)NC1=O (configuration not stated) [5,6-Dihydro-5-methyluracil] | 1.57 min
11 | OCC1OC(OCC2OC(OC3(CO)OC(CO)C(O)C3O)C(O)C(O)C2O)C(O)C(O)C1O (configuration not stated) [Raffinose] | 9.17 min
12 | CN1CCCC(n2nc(Cc3ccc(Cl)cc3)c3ccccc3c2=O)CC1 (configuration not stated) [Azelastine] | 2.95 min
13 | CN1CCC(=C2c3ccccc3CCc3sccc32)CC1 [Pizotifen] | 2.33 min
14 | Cc1ccc(NC(=O)c2ccc(CN3CCN(C)CC3)cc2)cc1Nc1nccc(-c2cccnc2)n1 [Imatinib] | 5.36 min
15 | O=C1C2CCCCC2C(=O)N1CCCCN1CCN(c2nsc3ccccc23)CC1 (configuration not stated) [Perospirone] | 2.14 min
16 | CN1CCC(c2ccc(F)cc2)C(COc2ccc3c(c2)OCO3)C1 (configuration not stated) [N-Methylparoxetine] | 2.2 min
17 | O=C(OC1CC2CC3CC(C1)N2CC3=O)c1c[nH]c2ccccc12 (configuration not stated) [Dolasetron] | 1.9 min
18 | Nc1ncnc2c1ncn2C1CC(O)C(COP(=O)(O)O)O1 (configuration not stated) [2'-Deoxyadenosine-5'-monophosphate] | 8.63 min
19 | CC(C)(C)NCC(O)c1ccc(O)c(CO)c1 (configuration not stated) [Albuterol] | 5.55 min
20 | Clc1ccccc1CN1CCc2sccc2C1 [Ticlopidine] | 1.12 min
21 | O=C(O)C(O)Cc1c[nH]c2ccccc12 (configuration not stated) [Indolelactic acid] | 2.25 min
22 | CC(=O)OCC[C@H](N)C(=O)O [O-Acetyl-L-homoserine] | 7.6 min
23 | CC(=O)C1(O)CCC2C3CC(C)C4=CC(=O)CCC4(C)C3CCC21C (configuration not stated) [Medroxyprogesterone] | 1.01 min

Row | Compound | LC retention time
24 | Clc1ccc(CON=C(Cn2ccnc2)c2ccc(Cl)cc2Cl)c(Cl)c1 [Oxiconazole] | 1.08 min
25 | COc1ccc2c3c1OC1C(=O)CCC4(O)C(C2)N(C)CCC314 (configuration not stated) [Oxycodone] | 4.58 min
26 | NC(N)=NCCCC(NC(=O)C(N)CCC(=O)O)C(=O)O (configuration not stated) [Glu-Arg] | 9.9 min
27 | CN=C(N)NCCCC(N)C(=O)O (configuration not stated) [Targinine] | 9.22 min
28 | O=c1[nH]c(=O)c2ncn(C3OC(CO)C(O)C3O)c2[nH]1 (configuration not stated) [Xanthosine] | 7.3 min
29 | CN1CCN(C2=Nc3ccccc3Oc3ccc(Cl)cc32)CC1 [Loxapine] | 2.18 min
30 | O=c1ccn(C2OC(CO)CC2O)c(=O)[nH]1 (configuration not stated) [3-Deoxyuridine] | 2.87 min
31 | CS(=O)CCCCC(=NOS(=O)(=O)O)SC1OC(CO)C(O)C(O)C1O (configuration not stated) [Glucoraphanin] | 7.37 min
32 | CC(C)NCC(O)COc1ccc(COCCOC(C)C)cc1 (configuration not stated) [Bisoprolol] | 3.47 min
33 | CNc1ccccc1C(=O)O [N-Methylanthranilic acid] | 1.22 min
34 | CC1OC(OCC2OC(Oc3c(-c4ccc(O)c(O)c4)oc4cc(O)cc(O)c4c3=O)C(O)C(O)C2O)C(O)C(O)C1O (configuration not stated) [Rutin] | 6.6 min
35 | CC(N)C(=O)NC(C(=O)O)C(C)C (configuration not stated) [Ala-Val] | 7.66 min
36 | CC(=O)Nc1ccc(CC(=O)O)cc1 [Actrarit] | 1.58 min
37 | COc1cc2c(cc1OC)C1C(C)c3ccc(OC)c(OC)c3CN1CC2 (configuration not stated) [Corydaline] | 1.52 min
38 | CC(C)CC(NC(=O)OCc1ccccc1)C(=O)O (configuration not stated) [N-Carbobenzyloxyleucine] | 1.28 min
39 | NC(Cc1c[nH]c2ccc(O)cc12)C(=O)O (configuration not stated) [5-Hydroxytryptophan] | 7.48 min
40 | COc1cc2nc(N3CCN(C(=O)C4CCCO4)CC3)nc(N)c2cc1OC (configuration not stated) [Terazosin] | 4.66 min
41 | C=C(C)C1CC=C(C)CC1 (configuration not stated) [Limonene] | 0.92 min
42 | CC(O)CC(=O)OC(CC(=O)[O-])C[N+](C)(C)C (configuration not stated) [3-Hydroxybutyrylcarnitine] | 7.62 min
43 | Nc1nc2c(ncn2CCC(CO)CO)c(=O)[nH]1 [Penciclovir] | 6.71 min
44 | CC(=O)N1CCCCCC1=O [N-Acetylcaprolactam] | 2.3 min
45 | NC12CC3CC(CC(C3)C1)C2 [Amantadine] | 4.88 min
46 | CCC(COC(=O)c1cc(OC)c(OC)c(OC)c1)(c1ccccc1)N(C)C (configuration not stated) [Trimebutine] | 1.47 min

Row | Compound | LC retention time
47 | CC(O)C(O)C1=Nc2c(nc(N)[nH]c2=O)NC1 (configuration not stated) [7,8-Dihydrobiopterin] | 7.18 min
48 | NC(=O)Cc1ccccc1 [2-Phenylacetamide] | 1.26 min
49 | CC(CCC(=O)NCCS(=O)(=O)O)C1CCC2C3C(O)CC4CC(O)CCC4(C)C3CC(O)C12C (configuration not stated) [Taurocholic acid] | 6.12 min
50 | NC(Cc1ccc(O)c(Cl)c1)C(=O)O (configuration not stated) [3-Chlorotyrosine] | 7.13 min
51 | CC(C=CC1=C(C)CCCC1(C)C)=CC=CC(C)=CC(=O)O [Retinoic acid] | 1.11 min
52 | CCCCCCc1ccc(O)cc1O [4-Hexylresorcinol] | 1.63 min
53 | CC(C)CC(NC(=O)CN)C(=O)O (configuration not stated) [Glycyl-leucine] | 8.14 min
54 | Cc1nnc2n1-c1ccc(Cl)cc1C(c1ccccc1)=NC2 [Alprazolam] | 1.34 min
55 | NC1CCCCC1 [Cyclohexanamine] | 5.1 min
56 | CNc1ccccc1 [N-Methylaniline] | 1.06 min
57 | CCCCCCCCCCCC(CC1OC(=O)C1CCCCCC)OC(=O)C(CC(C)C)NC=O (configuration not stated) [Orlistat] | 0.89 min
58 | CC(=O)Nc1ccc(O)cc1 [Acetaminophen] | 1.37 min
59 | C[N+](C)(C)CCO [Choline [M]+] | 5.18 min
60 | CC(=O)OCCc1ccccc1 [Phenethylacetate] | 1.02 min
61 | O=C1CCC(C(=O)N2CSCC2C(=O)O)N1 (configuration not stated) [Pidotimod] | 7.3 min
62 | COc1c2occc2cc2ccc(=O)oc12 [Xanthotoxin] | 1.04 min
63 | CC(=O)CCCCn1cnc2c1c(=O)n(C)c(=O)n2C [Lomifylline] | 1.09 min
64 | COc1cc2ccc(=O)oc2cc1O [Scopoletin] | 1.16 min
65 | CC(O)C(C)O (configuration not stated) [2,3-Butanediol] | 3.34 min
66 | COC(=O)c1ccccc1C(=O)OC [Dimethyl phthalate] | 1.04 min
67 | CC(NC(C)(C)C)C(=O)c1cccc(Cl)c1 (configuration not stated) [Bupropion] | 2.22 min
68 | C[n+]1cccc(C(N)=O)c1 [1-Methylnicotinamide] | 6.26 min
69 | CC(C)CC(N)C(=O)N1CCCC1C(=O)O (configuration not stated) [Leu-Pro] | 7.32 min

Row | Compound | LC retention time
70 | CCCC(C)(COC(N)=O)COC(N)=O [Meprobamate] | 1.25 min
71 | CC(C)=CCNc1ncnc2c1ncn2C1OC(CO)C(O)C1O (configuration not stated) [N6-Isopentenyladenosine] | 1.48 min
72 | NC(N)=NCC(=O)O [Guanidinoacetic acid] | 8.16 min
73 | CN1C(=O)C(O)N=C(c2ccccc2)c2cc(Cl)ccc21 (configuration not stated) [Temazepam] | 1.15 min
74 | CCCC(=O)NCC(=O)O [Butyrylglycine] | 3.73 min
75 | COC(=O)C1=C(C)NC(C)=C(C(=O)OC(C)C)C1c1cccc2nonc12 (configuration not stated) [Isradipine] | 0.95 min
76 | COc1ccc(C(=O)NCc2ccc(OCCN(C)C)cc2)cc1OC [Itopride] | 3.65 min
77 | Nc1nnc(-c2cccc(Cl)c2Cl)c(N)n1 [Lamotrigine] | 1.98 min
78 | OCc1cc(C(O)CNCCCCCCOCCCCc2ccccc2)ccc1O (configuration not stated) [Salmeterol] | 4.75 min
79 | CC(=O)NCCCC(=O)O [4-Acetamidobutyric acid] | 2.26 min
80 | CC(C)=CCNc1ncnc2nc[nH]c12 [Isopentenyladenine] | 1.81 min
81 | CN1C2CCC1C(C(=O)O)C(O)C2 (configuration not stated) [Ecgonine] | 7.61 min
82 | Cc1cc(O)cc(=O)o1 [4-Hydroxy-6-methyl-2-pyrone] | 1.47 min
83 | O=C(O)Cc1c[nH]c2ccc(O)cc12 [5-Hydroxy-3-indoleacetic acid] | 1.78 min
84 | COC(=O)C1=C(C)NC(C)=C(C(=O)OC2CCCN(Cc3ccccc3)C2)C1c1cccc([N+](=O)[O-])c1 (configuration not stated) [Benidipine] | 1.46 min
85 | Cc1ncc([N+](=O)[O-])n1CCO [Metronidazole] | 1.17 min
86 | C[Si](C)(C)CCC(=O)O [3-Trimethylsilylpropionic acid] | 5.64 min
87 | CC(C)=CCCC(C)=CC(=O)O [Geranic acid] | 1.3 min
88 | CCC=CCC1C(=O)CCC1CC(=O)OC (configuration not stated) [Methyl jasmonate] | 1.04 min
89 | NCCc1c[nH]c2ccc(O)cc12 [Serotonin] | 1.44 min
90 | CNC(Cc1ccc(O)cc1)C(=O)[O-] (configuration not stated) [Methyltyrosinate] | 4.23 min
91 | CC(=O)Nc1ccc2c(c1)Cc1ccccc1-2 [N-2-Fluorenylacetamide] | 4.74 min
92 | COCCCOc1ccnc(CS(=O)c2nc3ccccc3[nH]2)c1C (configuration not stated) [Rabeprazole] | 2.44 min
